According to ChEMBL document CHEMBL1201862, “PubChem BioAssay data set” (2004):
Activity calls are given as the source filed them.

Legend:
[1] = cells; type: functional
[2] = cells; type: functional, cell-based; details: HEK-CNG
[3] = target: T1, Galanin receptor type 3 (Homo sapiens, UniProt O60755); assay: Fluorescence-based cell-based primary high throughput dose response assay to identify antagonists of the Galanin Receptor 3 (GalR3).; type: functional
T1 sequence (O60755 whole entry): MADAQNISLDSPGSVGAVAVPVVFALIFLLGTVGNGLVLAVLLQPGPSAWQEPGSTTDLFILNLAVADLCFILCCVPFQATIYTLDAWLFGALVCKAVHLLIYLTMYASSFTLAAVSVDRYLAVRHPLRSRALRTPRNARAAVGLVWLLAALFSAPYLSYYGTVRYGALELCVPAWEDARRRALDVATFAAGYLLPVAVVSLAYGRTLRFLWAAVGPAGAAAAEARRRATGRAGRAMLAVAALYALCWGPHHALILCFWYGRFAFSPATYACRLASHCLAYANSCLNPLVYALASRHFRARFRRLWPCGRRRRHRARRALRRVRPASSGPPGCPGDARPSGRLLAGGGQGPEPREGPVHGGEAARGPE

[4] = LGR2 antagonists, dose response, cell-based, HEK293, CRE-luciferase reporter, cherry pick, set 2 (AID 743343); type: functional;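 further: transfected cells were stimulated with diluted bursicon conditioned medium after compound addition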
[5] = HepG2 cell cytotoxicity, dose response, cytotoxicity control, plate reader, cherry-pick, antagonist series (AID 743416); type: functional, cell-based
[6] = HEK293 cell cytotoxicity, dose response, cytotoxicity control, plate reader, cherry-picked samples (AID 743446); type: functional, cell-based
[7] = A549 cell cytotoxicity, dose response, cytotoxicity control, plate reader, cherry-pick, antagonist series (AID 743412); type: functional, cell-based
[8] = MC4R antagonists, dose response, counter-screen for LGR2 antagonist project, cell-based, plate reader, cherry pick (AID 743444); type: functional;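 further: transfected HEK 293 cells stimulated with alpha-MSH peptide; potency of inhibitors of the alpha-MSH evoked signal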
[9] = cells
[10] = Luminescence-based cell-based high throughput dose response assay to identify activators of the DAF-12 from the parasite S. stercoralis (ssDAF-12).; type: functional
[11] = target: T2, Oxysterols receptor LXR-beta (Homo sapiens, UniProt P55055); type: functional, cell-based;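 further: Cell-based luminescence dose-response assay of agonist activity at LXR, run as a confirmatory counterscreen to a daf-12 agonist screen; HEK293 cells with Gal4-LXR fusion and GAL4-driven luciferase reporter; agonist potency from rising luciferase signal of a Gal4-LXR reporter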
T2 sequence (P55055 whole entry): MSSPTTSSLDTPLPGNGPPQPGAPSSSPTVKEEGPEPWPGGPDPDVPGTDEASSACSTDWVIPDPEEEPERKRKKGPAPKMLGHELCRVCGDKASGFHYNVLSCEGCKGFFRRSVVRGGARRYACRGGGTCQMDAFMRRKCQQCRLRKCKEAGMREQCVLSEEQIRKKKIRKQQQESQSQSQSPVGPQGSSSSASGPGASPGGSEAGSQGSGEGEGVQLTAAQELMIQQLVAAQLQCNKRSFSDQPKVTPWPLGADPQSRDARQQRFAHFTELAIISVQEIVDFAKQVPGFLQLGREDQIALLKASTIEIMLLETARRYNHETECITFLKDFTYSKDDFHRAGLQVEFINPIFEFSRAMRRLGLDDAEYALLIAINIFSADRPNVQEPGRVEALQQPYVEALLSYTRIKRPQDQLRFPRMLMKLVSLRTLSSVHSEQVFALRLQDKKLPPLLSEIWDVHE

[12] = inhibitors of PGC1a acetylation in cells, dose response, cell-based, cherry-picked samples (AID 720514); type: functional;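 further: potency may reflect raised or lowered acetylation signal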
[13] = HeLa 4N DNA content increase, dose response, cell-based, IC50 (AID 1117351); type: functional
[14] = HeLa 2N DNA content increase, dose response, cell-based, IC50 (AID 1117349); type: functional

With O=C(COc1ccc2ccccc2c1)Nc1ccncc1 the IC50 [1] was 6.95 µM (active), the EC50 [2] was > 29.9 µM (inactive) and the IC50 [3] was 1.77 µM (active).
With COc1ccc(-c2cc3nc(NCc4ccc(N(C)C)cc4)n(C)c(=O)c3s2)cc1OC the AC50 [4] was 31.3 µM (active), the AC50 [5] was 45.2 µM (active) and the AC50 [6] was 3.28 µM (active). The AC50 [7] was 36 µM (active) and the AC50 [8] was 39 µM (active).
With C[C@@H]1CN([C@H](C)CO)C(=O)CCCn2nncc2CO[C@H]1CN(C)C(=O)Nc1cccc2ccccc12 the AC50 [5] was > 52 µM (inactive) and the AC50 [8] was 34.8 µM (active).
In the case of Nc1ccccc1-n1nc2ccc3ccccc3c2n1, the EC50 [9] is reported as > 67.5 µM (inactive), the IC50 [10] is reported as > 67.5 µM (inactive) and the EC50 [11] is reported as > 67.5 µM (inactive).
For O=C(Cc1ccccn1)NCC[C@H]1CC[C@@H](NC(=O)Nc2ccc(C(F)(F)F)cc2)[C@@H](CO)O1, the AC50 [12] was 34.6 µM (active).
With C[C@@H]1CN([C@@H](C)CO)S(=O)(=O)c2ccc(-c3ccc(C#N)cc3)cc2O[C@H]1CN(C)C(=O)CN(C)C the AC50 [12] was 26.5 µM (active).
In the case of [O-][n+]1ccccc1SSc1cccc[n+]1[O-] [DIPYRITHIONE], the IC50 [13] is reported as > 10 µM (inactive) and the IC50 [14] is reported as > 10 µM (inactive).
